Data as given in paper PMC4364779, “IMD-4690, a Novel Specific Inhibitor for Plasminogen Activator Inhibitor-1, Reduces Allergic Airway Remodeling in a Mouse Model of Chronic Asthma via Regulating Angiogenesis and Remodeling-Related Mediators” (PLoS ONE, 2015).

Key:
binding of tPA and PAI-1 = binding of tPA and PAI-1 (Homo sapiens, UniProt P05121); test: Inhibition of tPA/PAI-1 complex formation (SDS-PAGE, silver staining, densitometry); conditions: recombinant PAI-1 + IMD-4690 in PBS 37°C 5 min, then tPA 37°C 5 min; tPA/PAI-1 complex band densitometry
Method: Fig 1 Schedule of in vivo experiments and biological activity of IMD-4690. (A) Protocols for the mouse experiments. (B) Inhibitory effects of IMD-4690 on the binding of tPA and PAI-1. The recombinant PAI-1 and IMD-4690 were mixed and incubated in PBS at 37°C for 5 min. Then tPA was added. After incubation at 37°C for 5 min, samples were applied for 10% SDS-PAGE and visualized with a silver staining. The bands of tPA/PAI-1 complex were quantified by a densitometry, and calculated IC50.
A synthetic PAI-1 inhibitor, IMD-4690, 2-[[3-(4-tert-Butylphenoxy)-4'- (trifluoromethoxy) [1,1'-biphenyl]-4-yl]oxy] acetic acid, was molecularly designed, synthesized. IMD-4690 inhibited the binding of tPA and PAI-1 at the IC50 of 8 μM (Fig. 1B).

human PAI-1 = human PAI-1 (Homo sapiens, UniProt P05121); test: Direct tPA assay of PAI-1 activity (fluorescent substrate Pyr-Gly-Arg-MCA); type: biochemical; conditions: recombinant tPA and PAI-1, read-out: IC50 of human PAI-1 inhibition
Method: Inhibitory effect of IMD-4690 on the activity of PAI-1 was measured by the direct tPA assay. Briefly, recombinant tPA and PAI-1 was mixed with IMD-4690, and then tPA substrate with fluorescent pigment (Pyr-Gly-Arg-MCA) was added in this mixture and incubated. The enzymatic activity was calculated by measuring the fluorescence. The inhibitory activity of IMD-4690 on other enzymes was measured with the similar method.

[1] = test system: chronic allergen exposure model of bronchial asthma in mice; test: Lung resistance (RL) by restrained whole body plethysmography, chronic Dp asthma model; type: in vivo, mouse; conditions: at 25 and 50 mg/mL of Mch, day 70, 10 mg/kg i.p., vs Dp/CMC mice
Method: (§1) All mice were sensitized on days 0 and 7 by intraperitoneal injections of 10 μg of Dp dissolved in 500 μL saline and mixed with 1mg of Alum (Sigma-Aldrich Japan). Dp-sensitized mice were challenged intranasally with 10 μg (10 μL) Dp in 70 μL saline on alternate days, 3 days per week, from days 14 to 67. The mice were also treated intraperitoneally with IMD-4690 (10 mg/kg) (Dp/IMD group) or CMC alone (Dp/CMC group) at the same day with Dp challenge. As a control, mice were challenged with saline and given CMC during this period (control/CMC group) (Fig. 1A). Each experiment was performed using six mice per group.
Seventy-two hours after the final challenge (day 70), lung resistance (RL) was measured by restrained whole body plethysmography (Buxco Electronics). Mice were anesthetized by 6 mg/mL 2,2,2-tribromoethanol with 2-methyl-2-butanol. Then mice were tracheostomized and cannulated with a 19-gauge tracheostomy tube, and were placed in the chamber for plethysmography and mechanically ventilated. Aerosolized β-methacholine (Mch) was administered by an in-line aerosol delivery system at different concentrations (6.25, 12.5, 25, and 50 mg/mL). After each Mch challenge, data were continuously collected, and values of RL were taken to express the changes in these functional parameters. The data were expressed as the percentage change from baseline RL obtained after inhalation of saline.

[2] = Body weight and adverse effects in Dp-sensitized mice; type: in vivo, mouse; conditions: 10 mg/kg i.p.
From the text: Six-week-old female BALB/c mice (15–20 g) were purchased from CLEA Japan Inc. (Tokyo, Japan). Mice were maintained in the animal facility of the University of Tokushima according to the guidelines of the ethics committee of our university. The present study was approved by Institutional Animal Care and Use Committee of the University of Tokushima (Permission Number: 11134). Mice were housed under specific pathogen-free conditions with 12-h light/dark cycle in a temperature-controlled room with free access to food and water. Mice were monitored weekly for body weight and daily for food and water intake and assessed visually for signs of clinical disease including inactivity, labored respiration and ruffled fur.
as §1

binding of tPA and PAI-1, sequence (P05121 24-402): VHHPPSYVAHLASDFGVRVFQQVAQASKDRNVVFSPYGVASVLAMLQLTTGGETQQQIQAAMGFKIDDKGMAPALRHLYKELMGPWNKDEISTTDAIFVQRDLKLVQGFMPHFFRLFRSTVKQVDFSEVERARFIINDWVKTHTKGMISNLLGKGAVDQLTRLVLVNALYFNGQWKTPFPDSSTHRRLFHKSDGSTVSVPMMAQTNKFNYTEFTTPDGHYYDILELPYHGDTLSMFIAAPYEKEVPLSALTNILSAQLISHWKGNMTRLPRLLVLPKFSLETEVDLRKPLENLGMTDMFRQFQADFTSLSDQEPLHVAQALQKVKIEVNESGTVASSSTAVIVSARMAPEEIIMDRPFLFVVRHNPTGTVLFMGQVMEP
human PAI-1, sequence (P05121 24-402): as above

Compound: CC(C)(C)c1ccc(Oc2cc(-c3ccc(OC(F)(F)F)cc3)ccc2OCC(=O)O)cc1 [IMD-4690, 2-[[3-(4-tert-Butylphenoxy)-4'-(trifluoromethoxy) [1,1'-biphenyl]-4-yl]oxy] acetic acid]
- IC50 (binding of tPA and PAI-1): 8 µM
- IC50 (human PAI-1): 1.1 µM
- Airway resistance (RL) [1]: significantly reduced
- Adverse effects in the mouse model ([2]; chronic Dp model): could not find any adverse effects
- Changes in body weight ([2]; Dp-sensitized mice): did not show any weight loss
